Measured values: patent US20250186734A1, “METHODS AND SYSTEMS FOR AUTOMATED NEUR[…] TO EXTEND RELIEF OF TREATMENT-RESISTANT MENTAL DISORDERS” (UNIVERSITY OF PITTSBURGH-OF THE COMMONWEALTH SYSTEM OF …, priority 2022, published 2025)

What was measured:
[1] = tested on: patients with treatment-resistant depression; assay: Randomized controlled trial of ketamine infusion and automated self-association training (ASAT/NT): MADRS depression severity; type: in vivo, human
Text: Participants. To achieve the initial recruitment target of n=150 patients, the study enrolled and randomized n=154 patients, continuing enrollment until a final sample was acquired that included the full target of n=150 patients who completed, at a minimum, (1) an infusion day, (2) a 24-hour assessment visit, and (3) ≥75% of intended Cognitive Training (active or sham NT) visits. All n=154 randomized patients were included in the reported intent-to-treat analyses. In particular, 154 adult (age 18-60) patients reporting moderate-to-severe levels of depression [Montgomery-Asberg Depression Rating Scale (MADRS; [Montgomery S A, Asberg M: A new depression scale designed to be sensitive to change. Br J Psychiatry. 1979; 134:382-9]) score 25], lower-than-normative self-reported self-esteem [i.e., scoring outside of 1SD from the normative mean on the Cognitive Triad Inventory [Beckham E E, Leber W R, Watkins J T, Boyer J L, Cook J B: Development of an instrument to measure Beck's cognitive triad: the Cognitive Triad Inventory. J Consult Clin Psychol. 1986; 54(4):566-7]“self” subscale [Anderson K W, Skidmore J R: Empirical analysis of factors in depressive cognition: the cognitive triad inventory. J Clin Psychol. 1995; 51(5):603-9; Possel P: Cognitive Triad Inventory (CTI): psychometric properties and factor structure of the German translation. J Behav Ther Exp Psychiatry. 2009; 40(2):240-7] and/or the Rosenberg Self-Esteem Scale], and at least one failed, adequate trial of an FDA-approved antidepressant medication in the current depressive episode (per Antidepressant Treatment Response Questionnaire; ATRQ [Chandler G M, losifescu DV, Pollack M H, Targum S D, Fava M: RESEARCH: Validation of the Massachusetts General Hospital Antidepressant Treatment History Questionnaire (ATRQ). CNS Neurosci Ther. 2010; 16(5):322-5]), were recruited and randomized. Any existing depression treatment regimens were required to be stably maintained beginning 4 weeks prior to screening and throughout the trial. See FIG. 10, Table S1 and Examples 6-8 below for sample characteristics.
Assessment Timeline. An experienced, Master's level clinical rater (CRS) administered the MADRS, the study's pre-specified primary endpoint throughout the acute (30-day) study period, to assess overall depression severity. The measure was repeated at screening (used for eligibility determinations only), pre-infusion baseline (infusion −1 hour; the clinical rater then left and was not present during any intervention procedure), infusion +24 hours (prior to the first session of active/sham NT), +5, +12, +21, and +30 days. […] This study also contemplates including and analyzing neurocognitive (e.g., neuroimaging; performance-based) assessments of ketamine's impact. Adequacy of both patient and rater blinding, for both infusion and NT allocation, was assessed by self-report using a 0-100 sliding scale (0=definitely placebo/sham; 50=1 don't know; 100=definitely ketamine/active) at infusion+30 days.
Interventions. A randomization table using permuted blocks of 3 or 6, stratified by (1) biological sex at birth and (2) modest vs. severe treatment resistance (severe=≥3 FDA-approved antidepressant trials in episode, per ATRQ), was generated by an independent statistical consultant at study start and maintained by the study pharmacist, who, at the point of randomization, conveyed the NT allocation (but not the infusion allocation) to a single study staff member who was assigned to that patient. This single staff member was tasked with opening the correct computer program to deliver the NT sessions to that patient, but was not involved in, nor present for, any outcome ratings. Blinding for all other study personnel was maintained until after the final patient's Day 30 assessment was complete.
Infusion. Participants were randomized 2:1 to ketamine (0.5 mg/kg over 40 min) or saline (50 ml 0.9% Sodium Chloride over 40 min) infusion. […]

[2] = tested on: patients with treatment-resistant depression; assay: Adverse event monitoring after infusion in the trial; type: in vivo, human; details: 0.5 mg/kg over 40 min infusion, monitoring for 4 hours post-infusion
Procedure: Infusion. Participants were randomized 2:1 to ketamine (0.5 mg/kg over 40 min) or saline (50 ml 0.9% Sodium Chloride over 40 min) infusion. All infusions were administered by blinded, licensed nurses in a medical hospital setting with a linked ACLS-certified team, with blinded study physician (RHH) oversight and safety/adverse event monitoring sustained for 4-hours post-infusion.

[3] = tested on: depressed patients; details: cited from earlier work
[4] = 24 hours post-infusion, ketamine vs saline

## CNC1(c2ccccc2Cl)CCCCC1=O (centres unmarked) [ketamine]
[1]; 24 hours post-infusion
  remitter rate (MADRS≤9): 28%
  responder rate (≥50% decrease from pre-infusion MADRS baseline): 52%
[1]; [4]
  NNT for remission: 4.2
  number-needed-to-treat (NNT) for response: 3.7
[1]; infusion phase, pre-infusion to 24 hours post-infusion, ketamine 0.5 mg/kg over 40 min vs saline
  MADRS total depression score, group by time interaction, standardized β: −1.30
[1]; single ketamine infusion followed by 8 sessions of Cognitive Training
  duration of the rapid antidepressant effect of a single infusion extended by Cognitive Training: at least 30 days
[2]
  adverse events: mild-to-moderate, time-limited
[3]; as early as 2 hours post-ketamine
  response rates in depressed patients: 55-80%
[3]; intravenous ketamine
  time within which symptoms are dramatically reduced: 2 to 24 h
[3]; prior published work
  duration of improvements provided by a single infusion in isolation: 1-2 week
[3]; single infusion
  time after which effects of a single infusion dissipate: 3 to 7 days
